Experimental findings from the supplement of paper PMC8497498 are described below.

Assay [1] concerns Plasmodium vivax liver stage (primary human hepatocyte culture). The conditions noted are these: P. vivax isolate: Pv914, hepatocyte lot: BGW. In short, it runs like this: (§1)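 P. vivax sporozoites from mosquitoes fed on patient isolates were used to infect primary human hepatocytes, which received compounds at 8 points (10 uM[…]) or 12 points in duplicate (50 uM–280 pM). High-content imaging of immunostained wells recorded schizont growth area, hypnozoite count and hepatic nuclei relative to DMSO and positive-control wells. Potency, maximum inhibition and nuclei-loss cytotoxicity were fitted in CDD Vault from the best-quality run, omitting toxic bell-shaped points.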

In assay [2] the test system is Plasmodium cynomolgi Berok K4 asexual blood stage. As to the kind of experiment: EC50 asexual blood stage growth. The protocol: (§2)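 The Reference Compound Library was tested by 10-point 3-fold dose response against P. cynomolgi Berok K4 asexual blood stages (SYBR proliferation assay, mefloquine background control). Culture medium contained 0.5% AlbuMAX or 20% M. fascicularis serum. P. falciparum 3D7 was tested in a 72-h SYBR Green assay with 0.5% AlbuMAX. Values are geometric mean EC50 over independent experiments; 10 uM is the top dose.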

In assay [3] the test system is Plasmodium falciparum 3D7 asexual blood stage. As to the kind of experiment: EC50 asexual blood stage growth. The conditions noted are these: serum: 0.5% AlbuMAX. The method, then: as §2
Assay [4] relates to primary human hepatocytes. The assay can be described thus: CC20 hepatic nuclei (20% reduction); higher = less toxic. The conditions noted are these: P. vivax isolate: Pv914, hepatocyte lot: BGW. In short, it runs like this: as §1
Assay [5] relates to Plasmodium vivax liver stage (primary human hepatocyte culture). As to the kind of experiment: maximum inhibition of schizont net growth area; higher = more active. Particulars: P. vivax isolate: Pv914, hepatocyte lot: BGW. In outline: as §1
The mark [6] stands for this setting: assay mode: Prophylactic, 6-day.
Setting [7] is: assay mode: Radical Cure, 8-day (treatment from day 5 post-infection).
Where [8] appears, read: serum: 20% M. fascicularis serum.

For `CS(=O)(=O)c1ccc(-c2cnc(N)c(-c3ccc(C(F)(F)F)nc3)n2)cc1`, the EC50 hypnozoite quantity in assay [1] (setting [6]) was 7.29 nM; in assay [1] (setting [7]), above 10000 nM. For the same compound, the results for the “EC50 schizont net growth area” value in assay [1] (setting [6]) and in assay [1] (setting [7]) were 4.76 nM and 23.9 nM, respectively. The “EC50 asexual blood stage growth” value in assay [2] (serum: 0.5% AlbuMAX) was determined as 4880 nM; in assay [2] (setting [8]), 629 nM; in assay [3], 178 nM. Further, the CC20 hepatic nuclei in assay [4] (setting [6]) and in assay [4] (setting [7]) was above 10000 nM each time. The maximum inhibition in assay [5] (setting [6]) stood at 101%; in assay [5] (setting [7]) it was 96.4%.

Regarding `O=C(NCCN1CCCC1)c1cc(-c2ccc(CN3CCOCC3)cc2)nc2ccc(F)cc12`, the EC50 hypnozoite quantity in assay [1] (setting [6]) was 10.4 nM; in assay [1] (setting [7]), above 10000 nM. In addition, the “EC50 schizont net growth area” value worked out at 2.57 nM in assay [1] (setting [6]) and 2.35 nM in assay [1] (setting [7]). The “EC50 asexual blood stage growth” value turned out to be 1.5 nM in assay [2] (serum: 0.5% AlbuMAX), 0.7 nM in assay [2] (setting [8]) and 1 nM in assay [3]. The CC20 hepatic nuclei in assay [4] (setting [6]) and in assay [4] (setting [7]) was above 10000 nM in each case. The maximum inhibition came out at 101% in assay [5] (setting [6]) and 92.3% in assay [5] (setting [7]).

On to `OC(c1cc(C(F)(F)F)nc2c(C(F)(F)F)cccc12)C1CCCCN1` (racemic) [(±)-Mefloquine], for which the EC50 hypnozoite quantity in assay [1] (setting [6]) is above 10000 nM. In addition, the “EC50 schizont net growth area” value in assay [1] (setting [6]) was above 1110 nM. The “EC50 asexual blood stage growth” value turned out to be 219 nM in assay [2] (serum: 0.5% AlbuMAX), 66.4 nM in assay [2] (setting [8]) and 90.1 nM in assay [3]. The compound also came in with a CC20 hepatic nuclei in assay [4] (setting [6]) above 3330 nM. For the same compound, the maximum inhibition in assay [5] (setting [6]) worked out at 86%.

In the case of `CC1CCC2C(C)C(O)OC3OC4(C)CCC1C32O4` (stereo unspecified) [Deoxydihydroartemisinin], the “EC50 asexual blood stage growth” value in assay [2] (serum: 0.5% AlbuMAX), in assay [2] (setting [8]) and in assay [3] was above 10000 nM each time.

For the compound `C[C@H]1c2cccc(O)c2C(=O)C2=C(O)[C@]3(O)C(=O)C(C(N)=O)=C(O)[C@@H](N(C)C)C3[C@@H](O)C21` (stereo partly specified) [Doxycycline], the “EC50 asexual blood stage growth” value in assay [2] (serum: 0.5% AlbuMAX) stood at 9360 nM; in assay [2] (setting [8]) it was 8350 nM; in assay [3], 9930 nM.

Turning to `CN(C)CC1=C(CNc2ccnc3cc(Cl)ccc23)C=[C-]C1.[C-]1=CC=CC1.[Fe+2]` [Ferroquine], the “EC50 asexual blood stage growth” value in assay [2] (serum: 0.5% AlbuMAX) is 43.3 nM; in assay [2] (setting [8]), 36.2 nM; in assay [3], 11.5 nM.

`O=CN(O)CCCP(=O)(O)O` [Fosmidomycin]: the figures for the “EC50 asexual blood stage growth” value in assay [2] (serum: 0.5% AlbuMAX), in assay [2] (setting [8]) and in assay [3] were above 10000 nM, 6690 nM and above 10000 nM, respectively.

On to `N=C(N)c1ccc(-c2ccc(-c3ccc(C(=N)N)cc3)o2)cc1` [Furamidine], for which the “EC50 asexual blood stage growth” value in assay [2] (serum: 0.5% AlbuMAX) worked out at 4670 nM; in assay [2] (setting [8]) it was 864 nM; in assay [3], 540 nM.

On to `CCCCN(CCCC)CCC(O)c1cc2c(Cl)cc(Cl)cc2c2cc(C(F)(F)F)ccc12` (stereo unspecified) [Halofantrine], for which the “EC50 asexual blood stage growth” value is 0.5 nM in assay [2] (serum: 0.5% AlbuMAX), 0.5 nM in assay [2] (setting [8]) and 3.7 nM in assay [3].

Consider `CCN(CCO)CCCC(C)Nc1ccnc2cc(Cl)ccc12` (stereo unspecified) [Hydroxychloroquine], for which the “EC50 asexual blood stage growth” value in assay [2] (serum: 0.5% AlbuMAX) is 3370 nM; in assay [2] (setting [8]), 209 nM; in assay [3] it was 427 nM.

As to `CC1(C)c2nc(-c3ccc(F)cc3)c(Nc3ccc(F)cc3)n2CCN1C(=O)CN` [KAF-156], the “EC50 asexual blood stage growth” value in assay [2] (serum: 0.5% AlbuMAX) is 3.6 nM; in assay [2] (setting [8]), 36.6 nM; in assay [3], 24.4 nM.

Consider `CCCCN(CCCC)CC(O)c1cc(Cl)cc2c1-c1ccc(Cl)cc1C2=Cc1ccc(Cl)cc1` (stereo unspecified) [Lumefantrine], for which the “EC50 asexual blood stage growth” value in assay [2] (serum: 0.5% AlbuMAX) stood at 23.3 nM; in assay [2] (setting [8]) it was 105 nM; in assay [3], 30.5 nM.

As for `CC(C)(C)c1cc(O)c(CN)c(C(C)(C)C)c1.Cl` [MK-4815], the “EC50 asexual blood stage growth” value in assay [2] (serum: 0.5% AlbuMAX) worked out at 49.4 nM; in assay [2] (setting [8]), 93.8 nM; in assay [3] it was 574 nM.

In the case of `CS(=O)(=O)c1ccc(-c2cnc(N)c(-c3ccc(C(F)(F)F)nc3)c2)cc1` [MMV048], the “EC50 asexual blood stage growth” value in assay [2] (serum: 0.5% AlbuMAX) was 59.8 nM; in assay [2] (setting [8]), 49 nM; in assay [3] it was 127 nM.

Take `CN(Cc1cnc2nc(N)nc(N)c2n1)c1ccc(C(=O)N[C@@H](CCC(=O)O)C(=O)O)cc1` [Methotrexate]: the “EC50 asexual blood stage growth” value in assay [2] (serum: 0.5% AlbuMAX) was 232 nM; in assay [2] (setting [8]) it was 168 nM; in assay [3], 138 nM.

As for `CN(C)c1ccc2nc3ccc(=[N+](C)C)cc-3sc2c1` [Methylene blue], the “EC50 asexual blood stage growth” value in assay [2] (serum: 0.5% AlbuMAX) is 5.4 nM; in assay [2] (setting [8]), 6 nM; in assay [3] it was 17.8 nM.

Take `CC(=O)N[C@@H](C(=O)O)C(C)(C)S` [N-acetyl-D-penicillamine]: the “EC50 asexual blood stage growth” value was 7560 nM in assay [2] (serum: 0.5% AlbuMAX), above 10000 nM in assay [2] (setting [8]) and above 10000 nM in assay [3].

With `CC(C)(C)NCc1cc(Nc2ccnc3cc(Cl)ccc23)c2c(c1O)CCCC2` [Naphthoquine], the entries for the “EC50 asexual blood stage growth” value in assay [2] (serum: 0.5% AlbuMAX), in assay [2] (setting [8]) and in assay [3] were 23.2 nM, 68.3 nM and 8.7 nM, respectively.

`CONC(=N)c1ccc(-c2ccc(-c3ccc(C(=N)NOC)cc3)o2)cc1` [Pafuramidine]: the “EC50 asexual blood stage growth” value in assay [2] (serum: 0.5% AlbuMAX), in assay [2] (setting [8]) and in assay [3] was above 10000 nM in each case.

As for `N=C(N)c1ccc(OCCCCCOc2ccc(C(=N)N)cc2)cc1` [Pentamidine], the “EC50 asexual blood stage growth” value in assay [2] (serum: 0.5% AlbuMAX) is 212 nM; in assay [2] (setting [8]) it was 389 nM; in assay [3], 139 nM.

`CN(C)Cc1ccccc1CNc1ccnc2cc(Cl)ccc12` [Phenylequine]: the figures for the “EC50 asexual blood stage growth” value in assay [2] (serum: 0.5% AlbuMAX), in assay [2] (setting [8]) and in assay [3] were 36.6 nM, 40.7 nM and 7.4 nM, respectively.

For `Clc1ccc2c(N3CCN(CCCN4CCN(c5ccnc6cc(Cl)ccc56)CC4)CC3)ccnc2c1` [Piperaquine], the “EC50 asexual blood stage growth” value was determined as 68.2 nM in assay [2] (serum: 0.5% AlbuMAX), 35.3 nM in assay [2] (setting [8]) and 299 nM in assay [3].

As for `COc1cc(NC(C)CCCN)c2ncccc2c1` (stereo unspecified) [Primaquine], the “EC50 asexual blood stage growth” value worked out at 3100 nM in assay [2] (serum: 0.5% AlbuMAX), 9000 nM in assay [2] (setting [8]) and 5750 nM in assay [3].

For `CC(C)N=C(N)N=C(N)Nc1ccc(Cl)cc1` [Proguanil], the “EC50 asexual blood stage growth” value in assay [2] (serum: 0.5% AlbuMAX) was above 10000 nM; in assay [2] (setting [8]) it was above 10000 nM; in assay [3] it was 2740 nM.

For the compound `CCc1nc(N)nc(N)c1-c1ccc(Cl)cc1` [Pyrimethamine], the figures for the “EC50 asexual blood stage growth” value in assay [2] (serum: 0.5% AlbuMAX), in assay [2] (setting [8]) and in assay [3] were 21.8 nM, 7.2 nM and 36.6 nM, respectively.

With `C=CC1CN2CCC1CC2C(O)c1ccnc2ccc(OC)cc12` (stereo unspecified) [Quinidine], the “EC50 asexual blood stage growth” value in assay [2] (serum: 0.5% AlbuMAX) was 30.8 nM; in assay [2] (setting [8]) it was 18.5 nM; in assay [3] it was 73.9 nM.

Turning to `C=C[C@H]1C[N@@]2CC[C@H]1C[C@H]2[C@H](O)c1ccnc2ccc(OC)cc12` [Quinine], the “EC50 asexual blood stage growth” value in assay [2] (serum: 0.5% AlbuMAX) is 127 nM; in assay [2] (setting [8]), 174 nM; in assay [3], 184 nM.

As for `Cc1cc2nc3c(=O)[nH]c(=O)nc-3n(CC(O)C(O)C(O)CO)c2cc1C` (stereo unspecified) [Riboflavin], the “EC50 asexual blood stage growth” value in assay [2] (serum: 0.5% AlbuMAX), in assay [2] (setting [8]) and in assay [3] was above 10000 nM in each case.

Turning to `CCN(CC)CCCCCCNc1cc(OC)cc2c(C)ccnc12` [Sitamaquine], the “EC50 asexual blood stage growth” value in assay [2] (serum: 0.5% AlbuMAX) came out at 773 nM; in assay [2] (setting [8]), 1050 nM; in assay [3] it was 730 nM.

Turning to `Nc1ccc(S(=O)(=O)Nc2ncccn2)cc1` [Sulfadiazine], the figures for the “EC50 asexual blood stage growth” value in assay [2] (serum: 0.5% AlbuMAX), in assay [2] (setting [8]) and in assay [3] were above 10000 nM, 8320 nM and above 10000 nM, respectively.

As to `COc1cc(C)c2c(Oc3cccc(C(F)(F)F)c3)c(OC)cc(NC(C)CCCN)c2n1` (stereo unspecified) [Tafenoquine], the results for the “EC50 asexual blood stage growth” value in assay [2] (serum: 0.5% AlbuMAX), in assay [2] (setting [8]) and in assay [3] were 5290 nM, above 10000 nM and 5940 nM, respectively.

Consider `COc1cc(Cc2cnc(N)nc2N)cc(OC)c1OC` [Trimethoprim], for which the “EC50 asexual blood stage growth” value came out at 794 nM in assay [2] (serum: 0.5% AlbuMAX), 496 nM in assay [2] (setting [8]) and 5280 nM in assay [3].
